For data set [1], the target named is T1, hERG (Homo sapiens, UniProt Q12809).
T1 construct: host or cells: CHO (hERG-CHO overexpressing cells)
The data set is described as follows: hERG automated patch-clamp in hERG-CHO cells. The format is cell-based. On the procedure:
Cardiotoxicity analysis was performed by Eurofins Cerep (Poitiers, France) according to [73]. hERG-CHO overexpressing cells were used to perform automated patch-clamping. Compound 7i was evaluated at 0.1, 1 and 10 µM. Activities were expressed as % inhibition of tail current.
On the technique in general: The hERG channel carries a current that helps repolarise heart muscle cells.

Data set [2] can be described thus: Microsomal stability in mouse liver microsomes. It is filed as in vitro ADME. The note with it: mLM; for Compound Remaining (1 h, %): 10 µM; for half-life at 10 µM / microsomal CLint at 10 µM: mouse, liver microsomes. The protocol: (§1) Metabolic stability analysis (mouse and human liver microsomes) was performed by Eurofins Cerep (Poitiers, France) at 10 µM as described in [55]. Results were obtained at 15, 30, 45 and 60 min. Results were expressed as percent of the parent compound remaining, and calculated by comparing the peak area of the compound at the time point relative to that at time 0. The half-life (t1/2) and the apparent intrinsic clearance (CLint) were evaluated.
A general note: Liver microsomes are vesicles of endoplasmic reticulum, rich in cytochrome P450 enzymes.

The target of data set [3] is OCT2 (Homo sapiens, UniProt O15244). The data set is described as follows: Drug transporter inhibition (SLC family). The format is in vitro ADME. As to conditions: transporter-overexpressing cell lines, read-out: Drug transporters inhibition OCT2. The protocol: (§2) The compound was classically evaluated at 10 µM for all the ADME analyses. Bidirectional permeability (apical A to basolateral B pH 6.5/7.4 and basolateral B to apical A pH 7.4/6.5) was assessed in the epithelial colorectal adenocarcinoma cell line (Caco-2 cell line). Results were expressed as × 10^−6cm/s (Papp) and as % recovery. Efflux ratio, i.e., Papp(B-A)/Papp(A-B), was calculated. Plasma protein binding was analyzed by HPLC-MS/MS after 4-h incubation at 37 °C, as described by Banker et al.. Concentration was evaluated by LC/MS-MS. CYP inhibition was performed in human liver microsomes as described in [61]. Analysis of the respective metabolites. was performed by HPLC-MS/MS. Transporter inhibition analysis was also performed in overexpressing cell lines. Respective metabolites for each specific transporter substrate were analyzed by fluorometry or scintillation counting and % inhibition of control values were calculated. P-glycoprotein transporter substrate assessment was performed by bidirectional permeability analysis (apical A to basolateral B pH 7.4/7.4 and basolateral B to apical A pH 7.4/7.4) in the Caco-2 cell line with and without verapamil, as described in [59]. Results were expressed as ×10^−6 cm/s (Papp) and as % recovery. The efflux ratio, i.e., Papp(B-A)/Papp(A-B), was calculated. CYP450 induction characterization was performed on human hepatocytes. The mRNA levels of 7 different CYPs were analyzed by qPCR, as described in [72]. The compound was evaluated at 1, 10 and 100 µM. Fold-induction values were determined and compared to cut-off values, as defined for each CYP isozyme in each hepatocyte lot.

Data set [4] has as its target NTCP (Homo sapiens, UniProt Q14973). Put plainly: Drug transporter inhibition (SLC family). The format is in vitro ADME. As to conditions: read-out: Drug transporters inhibition NTCP. The protocol:
as §2

For data set [5], the target named is OAT3 (Homo sapiens, UniProt Q8TCC7). The data set is described as follows: Drug transporter inhibition (SLC family). The format is in vitro ADME. As to conditions: transporter-overexpressing cell lines, read-out: Drug transporters inhibition OAT3. On the procedure:
as §2

Data set [6] addresses OCT1 (Homo sapiens, UniProt O15245). The data set is described as follows: Drug transporter inhibition (SLC family). The note with it: transporter-overexpressing cell lines, read-out: Drug transporters inhibition OCT1. The format is in vitro ADME. On the procedure:
as §2

The target in data set [7] is OATP1B3 (Homo sapiens, UniProt Q9NPD5). The data set is described as follows: Drug transporter inhibition (SLC family). The format is in vitro ADME. The note with it: transporter-overexpressing cell lines, read-out: Drug transporters inhibition OATP1B3. On the procedure:
as §2

For data set [8], the target named is OATP1B1 (Homo sapiens, UniProt Q9Y6L6). The data set is described as follows: Drug transporter inhibition (SLC family). The note with it: transporter-overexpressing cell lines, read-out: Drug transporters inhibition OATP1B1. The format is in vitro ADME. On the procedure:
as §2

Data set [9] deals with OAT1 (Homo sapiens, UniProt Q4U2R8). Put plainly: Drug transporter inhibition (SLC family). It is filed as in vitro ADME. The note with it: transporter-overexpressing cell lines, read-out: Drug transporters inhibition OAT1. On the procedure:
as §2

Data set [10] addresses ABST (Homo sapiens, UniProt Q12908). The data set is described as follows: Drug transporter inhibition (SLC family). It is filed as in vitro ADME. As to conditions: read-out: Drug transporters inhibition ABST. The protocol:
as §2

Data set [11] can be described thus: Plasma protein binding. It is filed as in vitro ADME. The note with it: 4-h incubation at 37 °C, read-out: PPB (converted). The protocol: as §2, with “P-glycoprotein transporter substrate assessment was performed by bidirectional permeability analysis (apical A to basolateral B pH 7.4/7.4 and basolateral B to apical A pH 7.4/7.4) in the Caco-2 cell line with and without verapamil, as described in [59].” left out, “CYP450 induction characterization was performed on human hepatocytes.” left out

Data set [12] in a line: Bidirectional permeability in Caco-2 (pH 6.5/7.4). The note with it: human; for Papp A→B at 10 µM: Caco-2, pH 6.5, Caco-2, 10 µM, read-out: Permeability A/B pH6.5/7.4; for efflux ratio at 10 µM: Caco-2, pH 6.5, Papp(B-A)/Papp(A-B), pH 6.5/7.4, read-out: e-ratio (efflux ratio); for Papp B→A at 10 µM: pH 6.5, Caco-2, 10 µM, read-out: Permeability B/A pH6.5/7.4. The format is in vitro ADME, human. The protocol:
as §2
On the technique in general: Passage across Caco-2 layers is used to estimate intestinal permeability.

Data set [13] in a line: Microsomal stability in human liver microsomes. It is filed as in vitro ADME. The note with it: hLM; for half-life at 10 µM / microsomal CLint at 10 µM: human, liver microsomes. The protocol:
as §1
Metabolite identification was performed by HPLC-High Resolution mass spectrometry (MS). Chromatographic separation was performed on an Accela UPLC system (Thermo Fisher Scientific Inc. Waltham, MA, USA) equipped with an ACE 3 C18-AR column (100 × 2.1 mm, particle size 3 μm; AIT, Cormeilles-en-Parisis, France) preceded by a guard column (same stationary phase). The elution was performed with a gradient mode using water (solvent A) and ACN (solvent B), all acidified with 0.1% formic acid. The linear gradient elution program was as follows: 10% of B for 2 min; linear increase from 10 to 90% of solvent B for 20 min; 1 min at 90% of B; and 2 min of re-equilibration with 10% of B for a total run of 25 min. The LC flow rate was 400 µL/min and the injection volume was 10 μL. The column oven temperature was 30 °C and the sample tray temperature 4 °C. Eluted compounds were detected in positive mode by a full mass scan (m/z 200 to 500) using a Orbitrap Mass Spectrometer Exactive (Thermo Fisher Scientific Inc. Waltham, MA, USA) equipped with a heated electrospray ionization source (HESI-II). Instrument parameters were as follows: sheath gas 35, auxiliary gas 10 (both arbitrary units), spray voltage 2.4 kV, capillary temperature 275 °C, capillary voltage 67.5 V, tube lens voltage 120 V, skimmer voltage 24 V and source temperature 350 °C. Mass spectra were recorded at an ultra-high resolution (100,000). Instrument control, data acquisition and processing were performed using the associated Thermo Scientific software package (Xcalibur v.2.2 and Exactive v1.1).

Read-outs that look alike come from different tables or passages of the source.

OATP1B1, sequence (Q9Y6L6 whole entry): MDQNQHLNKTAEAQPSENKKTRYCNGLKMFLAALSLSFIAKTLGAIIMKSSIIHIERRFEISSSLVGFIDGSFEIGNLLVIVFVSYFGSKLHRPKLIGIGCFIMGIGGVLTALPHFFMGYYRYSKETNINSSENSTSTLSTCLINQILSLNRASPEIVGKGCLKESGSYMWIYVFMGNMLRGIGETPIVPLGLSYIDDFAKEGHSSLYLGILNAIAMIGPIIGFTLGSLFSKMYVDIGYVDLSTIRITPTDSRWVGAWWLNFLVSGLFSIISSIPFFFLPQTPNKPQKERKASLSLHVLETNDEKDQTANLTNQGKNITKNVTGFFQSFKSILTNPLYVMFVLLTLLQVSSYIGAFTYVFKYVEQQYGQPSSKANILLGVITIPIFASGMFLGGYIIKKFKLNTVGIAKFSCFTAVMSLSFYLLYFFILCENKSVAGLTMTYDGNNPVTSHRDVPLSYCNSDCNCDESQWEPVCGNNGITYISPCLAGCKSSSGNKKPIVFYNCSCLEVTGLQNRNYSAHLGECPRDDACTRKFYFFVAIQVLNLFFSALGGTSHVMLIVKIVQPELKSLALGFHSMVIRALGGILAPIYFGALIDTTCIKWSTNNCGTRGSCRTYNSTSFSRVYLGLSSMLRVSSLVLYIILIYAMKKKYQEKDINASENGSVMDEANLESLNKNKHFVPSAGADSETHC
OCT2, sequence (O15244 whole entry): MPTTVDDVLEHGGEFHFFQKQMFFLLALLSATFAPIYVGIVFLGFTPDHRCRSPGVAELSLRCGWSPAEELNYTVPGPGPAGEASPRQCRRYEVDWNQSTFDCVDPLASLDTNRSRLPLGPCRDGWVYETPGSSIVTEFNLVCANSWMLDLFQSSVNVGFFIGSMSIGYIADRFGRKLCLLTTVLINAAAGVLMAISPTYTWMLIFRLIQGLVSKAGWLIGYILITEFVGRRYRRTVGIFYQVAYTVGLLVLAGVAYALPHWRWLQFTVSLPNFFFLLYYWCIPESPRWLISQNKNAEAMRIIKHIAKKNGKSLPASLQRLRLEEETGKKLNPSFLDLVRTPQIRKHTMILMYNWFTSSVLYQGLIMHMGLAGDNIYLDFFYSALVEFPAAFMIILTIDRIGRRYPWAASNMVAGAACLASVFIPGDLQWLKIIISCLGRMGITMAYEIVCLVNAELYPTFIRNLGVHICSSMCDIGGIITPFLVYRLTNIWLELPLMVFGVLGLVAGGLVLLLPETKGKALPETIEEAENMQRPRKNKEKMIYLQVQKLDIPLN
ABST, sequence (Q12908 whole entry): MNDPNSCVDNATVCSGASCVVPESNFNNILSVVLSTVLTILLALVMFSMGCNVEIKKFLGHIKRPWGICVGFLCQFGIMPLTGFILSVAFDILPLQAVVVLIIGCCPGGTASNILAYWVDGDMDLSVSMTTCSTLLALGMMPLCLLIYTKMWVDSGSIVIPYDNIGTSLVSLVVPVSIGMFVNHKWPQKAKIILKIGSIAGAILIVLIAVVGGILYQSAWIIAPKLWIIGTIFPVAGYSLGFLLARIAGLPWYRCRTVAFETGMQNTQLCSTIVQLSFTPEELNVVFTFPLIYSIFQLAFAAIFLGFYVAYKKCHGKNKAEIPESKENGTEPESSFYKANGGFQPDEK
NTCP, sequence (Q14973 whole entry): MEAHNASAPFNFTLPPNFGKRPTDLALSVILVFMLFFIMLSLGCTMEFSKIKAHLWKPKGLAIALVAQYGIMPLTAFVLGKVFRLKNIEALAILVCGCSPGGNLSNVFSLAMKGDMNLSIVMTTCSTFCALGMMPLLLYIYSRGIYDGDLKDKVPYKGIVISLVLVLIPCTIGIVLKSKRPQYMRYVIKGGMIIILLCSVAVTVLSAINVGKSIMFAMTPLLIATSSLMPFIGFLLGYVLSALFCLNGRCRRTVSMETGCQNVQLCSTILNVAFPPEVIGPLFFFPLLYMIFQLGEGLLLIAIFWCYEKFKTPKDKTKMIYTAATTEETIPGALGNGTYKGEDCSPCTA
T1 sequence (Q12809 whole entry): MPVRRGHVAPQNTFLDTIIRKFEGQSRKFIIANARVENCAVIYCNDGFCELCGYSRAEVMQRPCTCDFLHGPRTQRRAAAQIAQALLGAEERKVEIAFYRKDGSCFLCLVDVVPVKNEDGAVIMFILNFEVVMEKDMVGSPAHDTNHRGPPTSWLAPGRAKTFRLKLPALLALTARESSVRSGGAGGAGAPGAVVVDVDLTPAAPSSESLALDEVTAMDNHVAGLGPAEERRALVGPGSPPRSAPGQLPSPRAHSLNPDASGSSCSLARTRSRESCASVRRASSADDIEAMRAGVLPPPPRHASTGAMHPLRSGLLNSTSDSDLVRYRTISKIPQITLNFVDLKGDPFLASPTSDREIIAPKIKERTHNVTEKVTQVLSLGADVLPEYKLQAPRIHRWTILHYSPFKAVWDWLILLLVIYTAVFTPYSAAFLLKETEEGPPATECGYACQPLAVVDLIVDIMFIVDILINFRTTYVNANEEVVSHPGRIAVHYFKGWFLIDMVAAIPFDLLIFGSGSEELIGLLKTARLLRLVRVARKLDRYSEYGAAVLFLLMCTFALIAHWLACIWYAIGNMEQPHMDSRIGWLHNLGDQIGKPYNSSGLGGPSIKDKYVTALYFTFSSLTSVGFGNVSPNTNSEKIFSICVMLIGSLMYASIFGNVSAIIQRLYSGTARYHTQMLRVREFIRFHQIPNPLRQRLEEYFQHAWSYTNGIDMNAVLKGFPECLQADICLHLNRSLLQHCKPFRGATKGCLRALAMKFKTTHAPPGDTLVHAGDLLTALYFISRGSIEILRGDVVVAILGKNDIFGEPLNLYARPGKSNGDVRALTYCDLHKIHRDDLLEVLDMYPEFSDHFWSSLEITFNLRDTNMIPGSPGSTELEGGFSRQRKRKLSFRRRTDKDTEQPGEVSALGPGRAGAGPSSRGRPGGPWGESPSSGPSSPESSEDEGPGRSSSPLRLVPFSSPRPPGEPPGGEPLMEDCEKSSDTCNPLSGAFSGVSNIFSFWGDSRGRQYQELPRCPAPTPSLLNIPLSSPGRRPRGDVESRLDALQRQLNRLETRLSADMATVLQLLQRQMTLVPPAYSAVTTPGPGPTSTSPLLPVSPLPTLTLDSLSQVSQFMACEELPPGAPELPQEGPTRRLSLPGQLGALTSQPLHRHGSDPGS
OAT3, sequence (Q8TCC7 whole entry): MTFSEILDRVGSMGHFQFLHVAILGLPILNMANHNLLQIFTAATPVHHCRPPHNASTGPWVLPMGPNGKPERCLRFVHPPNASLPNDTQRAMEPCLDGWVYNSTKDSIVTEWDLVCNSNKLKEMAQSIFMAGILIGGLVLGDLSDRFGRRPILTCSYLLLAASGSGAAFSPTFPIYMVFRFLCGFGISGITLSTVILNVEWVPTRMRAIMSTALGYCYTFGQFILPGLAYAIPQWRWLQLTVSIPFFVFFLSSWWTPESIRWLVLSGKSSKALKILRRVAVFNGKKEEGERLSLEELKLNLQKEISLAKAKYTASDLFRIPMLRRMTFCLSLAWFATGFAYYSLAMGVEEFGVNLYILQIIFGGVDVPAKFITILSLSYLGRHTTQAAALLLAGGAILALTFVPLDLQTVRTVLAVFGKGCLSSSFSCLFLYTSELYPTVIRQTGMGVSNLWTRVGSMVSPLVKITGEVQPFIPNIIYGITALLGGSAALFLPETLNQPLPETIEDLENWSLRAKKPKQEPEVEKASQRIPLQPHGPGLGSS
OATP1B3, sequence (Q9NPD5 whole entry): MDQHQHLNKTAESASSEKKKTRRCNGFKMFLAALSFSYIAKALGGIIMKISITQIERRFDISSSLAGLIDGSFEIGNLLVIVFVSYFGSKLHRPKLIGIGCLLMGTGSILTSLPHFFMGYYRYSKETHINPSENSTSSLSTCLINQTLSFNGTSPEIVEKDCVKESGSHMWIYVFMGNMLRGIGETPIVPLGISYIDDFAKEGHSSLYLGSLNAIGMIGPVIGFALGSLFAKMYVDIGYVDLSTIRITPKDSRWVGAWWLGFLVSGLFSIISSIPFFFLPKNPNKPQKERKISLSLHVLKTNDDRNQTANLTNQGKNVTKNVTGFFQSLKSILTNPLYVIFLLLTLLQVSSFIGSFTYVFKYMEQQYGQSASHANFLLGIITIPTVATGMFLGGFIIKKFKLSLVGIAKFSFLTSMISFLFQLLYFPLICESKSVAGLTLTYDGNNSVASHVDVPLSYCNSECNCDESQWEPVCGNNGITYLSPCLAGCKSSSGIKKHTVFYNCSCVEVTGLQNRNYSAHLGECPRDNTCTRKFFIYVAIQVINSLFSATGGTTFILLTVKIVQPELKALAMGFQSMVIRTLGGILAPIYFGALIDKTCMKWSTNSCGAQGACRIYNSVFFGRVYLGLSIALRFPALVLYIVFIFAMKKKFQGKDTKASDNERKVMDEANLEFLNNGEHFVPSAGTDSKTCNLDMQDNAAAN
OCT1, sequence (O15245 whole entry): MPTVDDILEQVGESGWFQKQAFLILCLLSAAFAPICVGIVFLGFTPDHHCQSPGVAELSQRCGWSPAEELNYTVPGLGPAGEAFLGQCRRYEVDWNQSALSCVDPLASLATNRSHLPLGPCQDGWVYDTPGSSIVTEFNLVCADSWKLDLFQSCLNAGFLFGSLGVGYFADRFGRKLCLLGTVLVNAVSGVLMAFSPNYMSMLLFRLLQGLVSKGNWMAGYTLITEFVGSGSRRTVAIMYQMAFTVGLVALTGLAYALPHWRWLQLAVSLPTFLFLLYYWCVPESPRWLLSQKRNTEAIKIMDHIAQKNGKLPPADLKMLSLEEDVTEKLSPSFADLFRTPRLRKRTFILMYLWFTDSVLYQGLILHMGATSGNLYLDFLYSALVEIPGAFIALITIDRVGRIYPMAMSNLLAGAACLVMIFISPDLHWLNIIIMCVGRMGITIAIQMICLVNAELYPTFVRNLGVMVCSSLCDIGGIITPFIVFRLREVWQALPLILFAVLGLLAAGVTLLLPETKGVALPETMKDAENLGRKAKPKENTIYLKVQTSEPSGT

One may read the IC50 as the concentration needed to halve the response being measured. By half-life is commonly meant how long it takes for the measured level to halve. A high value points to slow decline. One may read the microsomal CLint as the capacity of the preparation to metabolise the compound, expressed as a volume cleared per time. Broadly, the inhibition is the drop in the measured response relative to a control, in per cent. Consider `O=C(NCCCNCc1ccccc1)c1ccc(Cl)cc1` [compound 7i-deMe], for which the IC50 in [1] (read-out: hERG IC50) came to 1200 nM. For the same compound, the “Compound Remaining (1 h, %)” value in [2] is 80%; in data set [13] (10 µM) it was 83%. Besides, the half-life at 10 µM is > 3 h in data set [2] and > 9 h in data set [13]. Further, the microsomal CLint at 10 µM in data set [2] and in data set [13] was < 115 µL/min/mg throughout. The inhibition at 10 µM came out at 85.8% in data set [3]; 8.7% in data set [4]; 18.7% in data set [5]; 64.6% in data set [6]; 19.1% in data set [7]; 8.6% in data set [8]. Moreover, the inhibition at 10 µM in data set [9] was -6.2%; in data set [10] it was 5%. Moreover, the fraction unbound at 4 h, 10 µM in [11] was 0.19. In addition, in data set [12], the Papp A→B at 10 µM is 31.1 ×10⁻⁶ cm/s. The efflux ratio at 10 µM in [12] was 1.7. Further, the Papp B→A at 10 µM in [12] worked out at 51.5 ×10⁻⁶ cm/s. The same compound had a t1/2 in [13] (10 µM) of 10.0 h.
As for `CN(CCCNC(=O)c1ccc(Cl)cc1)Cc1ccccc1` [compound 7i], the IC50 in [1] (Table 4, read-out: hERG inhibition IC50) turned out to be 1000 nM. Further, the “Compound Remaining (1 h, %)” value in data set [2] is recorded as 54%; in [13] (10 µM), 66%. For the same compound, the half-life at 10 µM in data set [2] and in data set [13] was > 1 h in each case. Further, the microsomal CLint at 10 µM in data set [2] and in data set [13] was < 115 µL/min/mg throughout. Moreover, the inhibition at 10 µM was 49.4% in data set [3]; -1.7% in data set [4]; 34.3% in data set [5]; 41.2% in data set [6]; 23.1% in [7]; 12% in [8]. In addition, the inhibition at 10 µM in [9] is -9.6%; in data set [10], 5.3%. Besides, the fraction unbound at 4 h, 10 µM in data set [11] is > 0.05. In addition, the Papp A→B at 10 µM in [12] was ≤ 20 ×10⁻⁶ cm/s. For the same compound, the efflux ratio at 10 µM in data set [12] is ~2. In [12], the Papp B→A at 10 µM stood at 66.1 ×10⁻⁶ cm/s.

Source of the values: PMC9569529, “Safe and Efficient Sigma1 Ligand: A Potential Drug Candidate for Multiple Sclerosis” (International Journal of Molecular Sciences, 2022).
